In US8691822B2, “Dihydropteridinone derivatives, preparation process and pharmaceutical use thereof” (Jiangsu Hengrui Medicine Co., Ltd., priority 2009, dated 2014):
Where two headings read alike, the source gives them in different places.

Tests used:
[1] = test system: xenografts of HT-116 human colon cancer; assay: Therapeutic effects against xenografts of HT-116 human colon cancer in nude mice; type: in vivo; settings: nude mice bearing HT-116 xenografts
Method: The therapeutic effect of Example 1 against xenografts of HT-116 human colon cancer in nude mice was estimated.
Preparation method: the compound of Example 1 was prepared to corresponding concentration by using normal saline.
BALB/cA-nude mice, 6 to 7 weeks old, ♀, purchased from Slaccas Experimental Animal LTD., CO.
Nude mice were hypodermic inoculated HT-116 human colon cancer cell. After tumors grew to 60-150 mm^3, mice were randomly divided into teams (d0).
The volume of tumors and the weigh of the mice were measured and recorded for 2-3 times per week.
The calculation formula of the volume of tumor (V) is: V=½×a×b^2, a: length of tumor, b: width of tumor.

[2] = test system: human cervix cancer cells Hela; assay: Plk Cell Proliferation Inhibition Assay (CCK8, 72 hours); type: cell-based; settings: Hela cells highly expressing Plk
Source text: The following in vitro assay is to determine the activity of the compounds of the present invention for inhibiting the proliferation of human cervix cancer cells Hela, which has high expression of Plk.
The in vitro cellular assay described here is to determine the activity of the tested compounds for inhibiting the proliferation of cancer cells, which has high expression of Plk. The activity is represented by the […]. The general procedures for the assay are given as follows: The Hela cells highly expressing Plk (Institute of biochemistry and cell biology) were seeded to 96-well cell culture plate at a suitable concentration (exp 3000 cells/ml medium). The cells then were cultured in carbon dioxide (CO2) incubator and grew overnight. Then, the cell culture medium was replaced by fresh one with tested compounds added in it at serial concentrations (general 7 to 9 concentrations). Then the cells were put back to the incubator and cultured for continuous 72 hours. 72 hours later, the activity of the tested compounds for inhibiting the cell proliferation was determined by using CCK8 (cell counting kit-8, Dojindo, NO:CK04) method. IC50 value on tested cells were calculated by the data of inhibition rates of serial concentrations of the tested compounds.

[3] = Pharmacokinetics assay in rats (plasma concentration by LC/MS/MS); type: in vivo; settings: SD rats, 25 mg/kg; for AUC: read-out: Area Under Curve AUC; for half-life: read-out: Half-Life t½ (converted); for MRT: read-out: Mean Residence Time MRT
Method: The compound 37 of the present invention was administrated intravenous injection or intragastrically to rats to determine the drug concentration in plasma at different time points by LC/MS/MS method. The pharmacokinetic behavior of the compounds of the present invention was studied and evaluated in rats.
The right amount of tested compound was dissolved in 0.5 mL of DMSO, added with 1.5 mL of 0.1 M HCl, then diluted with normal saline to 2.5 mg/mL of suspension before use.
8 Healthy adult adult SD rats, male and female in half, were divided into 2 groups. After an overnight fast, the rats were administered intragastrically or administered via tail intravenous injection at a dose of 25.0 mg/kg.
25 μL of rat plasmas taken at various time points after administration were mixed with 20 μL of internal standard solution and 150 μL methanol for 3 minutes by using a vortexer and the mixture was centrifuged for 10 minutes at 13,500 rpm. 5 μL of the supernatant was analyzed by LC-MS/MS.
Plasma concentration was used as the abscissa, the ratio of chromatographic peak area between the sample and internal standard was used as the ordinate, the linear regression was carried out by the weighted least square method (w=1/x^2). The main pharmacokinetic parameters were calculated by DAS 2.0 software.

[4] = both sexes, rat, plasma, po, intragastric administration
[5] = both sexes, rat, plasma, intravenous injection

SMILES	IC50 [2]	also measured
CC[C@@H]1C(=O)N(C)c2cnc(Nc3ccc(C(=O)NC4CCN(C)CC4)c4c3OCC4)nc2N1C1CCCC1 [Example 1, 7-[[(7R)-8-Cyclopentyl-7-ethyl-5-methyl-6-oxo-7H-pteridin-2-yl]amino]-N-(1-methyl-piperidyl)-2,3-dihydrobenzofuran-4-carboxamide]	0.9 nM	toxicity (in words) [1]: less toxity
CC[C@@H]1C(=O)N(C)c2cnc(Nc3ccc(C(=O)NC[C@H]4CN5CCC[C@H]5CO4)c4c3OCC4)nc2N1C1CCCC1 [Example 26, N-[[(3S,8aS)-3,4,6,7,8,8a-Hexahydro-1H-pyrrolo[2,1-c][1,4]oxazin-3-yl]methyl]-7-[[(7R)-8-cyclopentyl-7-ethyl-5-methyl-6-oxo-7H-pteridin-2-yl]amino]-2,3-dihydrobenzofuran-4-carboxamide]	3 nM	
CC[C@@H]1C(=O)N(C)c2cnc(Nc3ccc(C(=O)NC[C@H]4CN5CCC[C@@H]5CO4)c4c3OCC4)nc2N1C1CCCC1 [Example 27, N-[[(3S,8aR)-3,4,6,7,8,8a-Hexahydro-1H-pyrrolo[2,1-c][1,4]oxazin-3-yl]methyl]-7-[[(7R)-8-cyclopentyl-7-ethyl-5-methyl-6-oxo-7H-pteridin-2-yl]amino]-2,3-dihydrobenzofuran-4-carboxamide]	1 nM	
CC[C@@H]1C(=O)N(C)c2cnc(Nc3ccc(C(=O)NC[C@@H]4CN5CCC[C@@H]5CO4)c4c3OCC4)nc2N1C1CCCC1 [Example 28, N-[[(3R,8aR)-3,4,6,7,8,8a-Hexahydro-1H-pyrrolo[2,1-c][1,4]oxazin-3-yl]methyl]-7-[[(7R)-8-cyclopentyl-7-ethyl-5-methyl-6-oxo-7H-pteridin-2-yl]amino]-2,3-dihydrobenzofuran-4-carboxamide]	3 nM	
CC[C@@H]1C(=O)N(C)c2cnc(Nc3ccc(C(=O)NC4CCN(C)CC4)c4c3OC(CN(C)C)C4)nc2N1C1CCCC1 (stereo partly drawn) [Example 29, 7-[[(7R)-8-Cyclopentyl-7-ethyl-5-methyl-6-oxo-7H-pteridin-2-yl]amino]-2-(dimethylaminomethyl)-N-(1-methyl-4-piperidyl)-2,3-dihydrobenzofuran-4-carboxamide]	30 nM	
CC[C@@H]1C(=O)N(C)c2cnc(Nc3ccc(C(=O)NC4CCN(C)CC4)c4c3OC(C)C4)nc2N1C1CCCC1 (stereo partly drawn) [Example 30, 7-[[(7R)-8-Cyclopentyl-7-ethyl-5-methyl-6-oxo-7H-pteridin-2-yl]amino]-2-methyl-N-(1-methyl-4-piperidyl)-2,3-dihydrobenzofuran-4-carboxamide]	4 nM	
CC[C@@H]1C(=O)N(C)c2cnc(Nc3ccc(C(=O)NC[C@H](O)CN4CCN(C)CC4)c4c3OCC4)nc2N1C(C)C [Example 32, 7-[[(7R)-7-Ethyl-8-isopropyl-5-methyl-6-oxo-7H-pteridin-2-yl]amino]-N-[(2S)-2-hydroxy-3-(4-methylpiperazin-1-yl)propyl]-2,3-dihydrobenzofuran-4-carboxamide]	9 nM	
CC[C@@H]1C(=O)N(C)c2cnc(Nc3ccc(C(=O)NC[C@@H](O)CN4CCN(C)CC4)c4c3OCC4)nc2N1C(C)C [Example 33, 7-[[(7R)-7-Ethyl-8-isopropyl-5-methyl-6-oxo-7H-pteridin-2-yl]amino]-N-[(2R)-2-hydroxy-3-(4-methylpiperazin-1-yl)propyl]-2,3-dihydrobenzofuran-4-carboxamide]	7 nM	
CC[C@@H]1C(=O)N(C)c2cnc(Nc3ccc(C(=O)N[C@H]4CC[C@H](N5CCN(CC6CC6)CC5)CC4)c4c3OCC4)nc2N1C1CCCC1 [Example 34, 7-[[(7R)-8-Cyclopentyl-7-ethyl-5-methyl-6-oxo-7H-pteridin-2-yl]amino]-N-[(trans)-4-[4-(cyclopropylmethyl)piperazin-1-yl]cyclohexyl]-2,3-dihydrobenzofuran-4-carboxamide]	0.7 nM	
CC[C@@H]1C(=O)N(C)c2cnc(Nc3ccc(C(=O)NC[C@@H](CN4CCN(CC5CC5)CC4)OC)c4c3OCC4)nc2N1C1CCCC1 [Example 35, 7-[[(7R)-8-Cyclopentyl-7-ethyl-5-methyl-6-oxo-7H-pteridin-2-yl]amino]-N-[(2S)-3-[4-(cyclopropylmethyl)piperazin-1-yl]-2-methoxy-propyl]-2,3-dihydrobenzofuran-4-carboxamide]	2 nM	
CC[C@@H]1C(=O)N(C)c2cnc(Nc3ccc(C(=O)NC[C@@H](CN4CCN(CC5CC5)CC4)OC)c4c3OCC4)nc2N1C(C)C [Example 36, N-[(2S)-3-[4-(Cyclopropylmethyl)piperazin-1-yl]-2-methoxy-propyl]-7-[[(7R)-7-ethyl-8-isopropyl-5-methyl-6-oxo-7H-pteridin-2-yl]amino]-2,3-dihydrobenzofuran-4-carboxamide]	7 nM	
CC[C@@H]1C(=O)N(C)c2cnc(Nc3ccc(C(=O)N[C@H]4CC[C@H](N5CCN(CC6CC6)CC5)CC4)c4c3OCC4)nc2N1C(C)C [Example 37, N-[(trans)-4-[4-(Cyclopropylmethyl)piperazin-1-yl]cyclohexyl]-7-[[(7R)-7-ethyl-8-isopropyl-5-methyl-6-oxo-7H-pteridin-2-yl]amino]-2,3-dihydrobenzofuran-4-carboxamide]	0.7 nM	Clearance CL/F ([3]; intravenous injection): 5.5 ± 0.5 mL/min/kg; bioavailability ([3]; both sexes, rat, plasma, oral, intragastric vs intravenous, read-out: oral bioavailability F): 59.4%; Vd/F ([3]; both sexes, rat, plasma, po, intragastric administration, read-out: Apparent Distribution Volume Vz/F): 13.6 ± 1 L/kg; AUC [3, 4]: 45600 ± 9230 ng·h/mL; CL/F ([3]; both sexes, rat, plasma, po, intragastric administration, read-out: Clearance CL/F (converted)): 9.5 mL/min/kg; half-life [3, 4]: 17.2 ± 4.4 h; MRT [3, 4]: 26.1 ± 5 h; Cmax ([3]; both sexes, rat, plasma, po, intragastric administration, read-out: Plasma Conc. Cmax): 1860 ± 150 ng/mL; AUC [3, 5]: 76700 ± 6200 ng·h/mL; half-life [3, 5]: 17.3 ± 3.3 h; MRT [3, 5]: 22.8 ± 4.3 h
CC[C@@H]1C(=O)N(C)c2cnc(Nc3ccc(C(=O)NC[C@@H](CN4CCN(C)CC4)OC)c4c3OCC4)nc2N1C1CCCC1 [Example 38, 7-[[(7R)-8-Cyclopentyl-7-ethyl-5-methyl-6-oxo-7H-pteridin-2-yl]amino]-N-[(2S)-2-methoxy-3-(4-methylpiperazin-1-yl)propyl]-2,3-dihydrobenzofuran-4-carboxamide]	2 nM	
CC[C@@H]1C(=O)N(C)c2cnc(Nc3ccc(C(=O)NC[C@@H](CN4CCN(C)CC4)OC)c4c3OCC4)nc2N1C(C)C [Example 39, 7-[[(7R)-7-Ethyl-8-isopropyl-5-methyl-6-oxo-7H-pteridin-2-yl]amino]-N-[(2S)-2-methoxy-3-(4-methylpiperazin-1-yl)propyl]-2,3-dihydrobenzofuran-4-carboxamide]	6 nM	
CC[C@@H]1C(=O)N(C)c2cnc(Nc3ccc(C(=O)NC4CCN(C)CC4)c4c3OC(COC)C4)nc2N1C1CCCC1 (stereo partly drawn) [Example 40, 7-[[(7R)-8-Cyclopentyl-7-ethyl-5-methyl-6-oxo-7H-pteridin-2-yl]amino]-2-(methoxymethyl)-N-(1-methyl-4-piperidyl)-2,3-dihydrobenzofuran-4-carboxamide]	2 nM	
CC[C@@H]1C(=O)N(C)c2cnc(Nc3ccc(C(=O)N[C@H]4CC[C@@H](N5CCN(CC6CC6)CC5)CC4)c4c3OCC4)nc2N1C(C)C [Example 44, N-[(cis)-4-[4-(Cyclopropylmethyl)piperazin-1-yl]cyclohexyl]-7-[[(7R)-7-ethyl-8-isopropyl-5-methyl-6-oxo-7H-pteridin-2-yl]amino]-2,3-dihydrobenzofuran-4-carboxamide]	5 nM	
